This experiment has as its system EEG oscillation power. Put plainly: Rat quantitative electroencephalography, freely moving. Conditions: first 4 h. Format: in vivo. The source says: Model 4ET telemetry device components (Data Sciences International, St Paul, MN, USA) were bilaterally placed in subcutaneous pockets on the dorsal flank of adult male Sprague-Dawley rats (200–400 grams). Two pairs of leads were implanted superficially to burr holes drilled over the frontal cortex (stainless steel screws, Plastics One, Roanoke, VA at coordinates: A-P = +1.5 mm, M-L = 1.5 mm) and parietal cortex (coordinates: A-P = −3.7 mm, M-L = −2.2 mm), and the cerebellum bilaterally to be used as ground and reference for electroencephalographic (EEG) recordings. A stainless-steel wire (Plastics One, Roanoke, VA) was implanted into the neck muscle to monitor electromyogram (EMG). All recordings were performed inside the home cages of animals using RPC-2 telemetry receivers (Data Sciences International, St. Paul, MN) at a sampling rate of 500 Hz for data acquisition. Baseline data, while on vehicle, were obtained for 24 h prior to compound administration. PF-6142 (1.0 or 5.6 mg/kg, s.c.) was administered acutely following the baseline day.
Raw EEG traces were analyzed using custom scripts in MATLAB (The Mathworks, Natick, MA, version 7.8 (R2009a)) to evaluate spectral changes between treatment groups. Raw EEG data were read into the MATLAB software, segmented to match that of the polysomnography (PSG) data (see below) and fast Fourier transforms (FFTs) were performed. Only data collected on the parietal lead were the subject of statistical analyses. PSG analysis was applied to all EEG/EMG data and utilized an in-house algorithm developed in LabView (National Instruments, Austin TX) as previously described ([Harvey et al., 2013]).
Relative power data in each band aggregated over 2 h-long time bins, while on drug, were normalized to baseline levels in corresponding time bins relative to dosing. For statistical analysis the R software was used. The effects of two within factors, dose and time, on cumulative time spent in three stages, awake, REM, and NREM sleep were assessed using generalized linear mixed model. The model specification explicitly accounted for a crossover design with repeated measures by introducing auxiliary factors, day, treatment sequence, and day by time product. To account for correlations within subjects, we employed a first order autoregressive scheme, which assumes that correlations decay exponentially with the lag between the measurements. The model was fitted using the method of restricted maximum likelihood. Significant findings were followed by least significant difference tests for pairwise differences across doses and across doses at fixed times for treatment and treatment by time factors, respectively. Tukey-Kramer procedure was used to adjust for multiple hypothesis testing. For all statistical tests, p < 0.05 was considered significant. The same fixed factors and type of statistical model were used to explain cumulative power within EEG power bands; the power was log transformed before the analysis.

Where [1] appears, read: significant only at 5.6 mg/kg s.c.

SMILES strings stand for the structures.

As to `Cc1cc(Oc2nccc3occc23)ccc1-c1c(C)ncc2nccn12` [PF-6142], under “5.6 mg/kg s.c.”, the “delta oscillation power vs vehicle” value is reported as “significant delta power decrease”. Also, the “power in other studied frequency bands (theta, alpha)” value (1.0 and 5.6 mg/kg s.c.) is reported as “not found to change significantly”. Further, under setting [1], the beta oscillation power result is “significant increase”, the gamma oscillation power entry was “significant increase” and the “total power in the EEG signal” value is recorded as “decreased significantly”.

(Values after paper PMC7358525, “Characterization of PF-6142, a Novel, Non-Catecholamine Dopamine Receptor D1 Agonist, in Murine and Nonhuman Primate Models of Dopaminergic Activation” (Frontiers in Pharmacology, 2020).)
